From PubChem BioAssay (NCI)
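Where inhibition never reached the appropriate level, the endpoint shown equals the highest concentration tested. Otherwise, values were interpolated linearly from a five-concentration, 48-hour dose response in 96-well plates. GI50 marks 50% less growth. At the TGI there is no net growth.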

Legend:
Experiment in all cases: growth of human tumour cells (NCI), 48 h
UACC-257 melanoma = tested on: UACC-257 melanoma
CAKI-1 renal = tested on: CAKI-1 renal
M19-MEL melanoma = tested on: M19-MEL melanoma
DMS 273 small cell lung = tested on: DMS 273 small cell lung
KM12 colon = tested on: KM12 colon
OVCAR-4 ovarian = tested on: OVCAR-4 ovarian
TK-10 renal = tested on: TK-10 renal
RXF 393 renal = tested on: RXF 393 renal
MDA-MB-435 = tested on: MDA-MB-435
DU-145 prostate = tested on: DU-145 prostate
KM20L2 colon = tested on: KM20L2 colon
DLD-1 colon = tested on: DLD-1 colon

Structure (SMILES) | TGI (UACC-257 melanoma) | TGI (CAKI-1 renal) | TGI (M19-MEL melanoma) | TGI (DMS 273 small cell lung) | TGI (KM12 colon) | TGI (OVCAR-4 ovarian) | TGI (TK-10 renal) | TGI (RXF 393 renal) | TGI (MDA-MB-435) | TGI (DU-145 prostate) | TGI (KM20L2 colon) | TGI (DLD-1 colon) | GI50 (UACC-257 melanoma) | GI50 (CAKI-1 renal) | GI50 (RXF 393 renal) | GI50 (MDA-MB-435) | GI50 (KM12 colon) | GI50 (DU-145 prostate) | GI50 (OVCAR-4 ovarian) | GI50 (TK-10 renal)
CCCCCC(=O)c1ccc2[nH]c3c(C)cc([N+](=O)[O-])c(C)c3c2c1 | > 100 µM | > 100 µM | > 100 µM | > 100 µM | > 100 µM | > 100 µM | > 100 µM |  |  |  |  |  |  |  |  |  |  |  |  | 
NC(=Nc1ccc(O)cc1)S(=O)(=O)O | > 100 µM | > 100 µM |  |  | > 100 µM | > 100 µM | > 100 µM | > 100 µM | > 100 µM | > 100 µM |  |  |  |  |  |  |  |  |  | 
CCOc1cc(NC(C)=O)ccc1C(=O)NN1C(=O)C(Oc2ccccc2)C1c1ccccc1 (centres undefined) | > 100 µM | > 100 µM |  |  | > 100 µM | > 100 µM | > 100 µM | > 100 µM | > 100 µM | > 100 µM |  |  |  |  |  |  |  |  |  | 
COC(=O)c1ccccc1C#CC#Cc1ccccc1C(=O)OC | > 10 µM | > 10 µM |  |  | > 10 µM | > 10 µM | > 10 µM | > 10 µM | > 10 µM | > 10 µM |  |  |  |  |  |  |  |  |  | 
CN(C)c1ccc(/C=C2\N=C(NN)NC2=O)cc1 | > 100 µM | > 100 µM |  |  | > 100 µM | > 100 µM | > 100 µM | > 100 µM | > 100 µM | > 100 µM |  |  |  |  |  |  |  |  |  | 
COC(=O)C(C)(N=Cc1ccccc1)c1ccccc1 (centres undefined) | > 100 µM | > 100 µM |  |  | > 100 µM | > 100 µM | > 100 µM | > 100 µM | > 100 µM | > 100 µM |  |  |  |  |  |  |  |  |  | 
N=c1nnc(=O)c2c(s1)-n1ncc(C(=O)O)c1NN2 |  | > 100 µM | > 100 µM |  | > 100 µM | > 100 µM | > 100 µM | > 100 µM |  |  | > 100 µM | > 100 µM |  |  |  |  |  |  |  | 
N#Cc1c(SCc2ccccc2)nc(-c2ccccc2)[nH]c1=S | > 100 µM | 79 µM |  |  | 34.5 µM | > 100 µM | > 100 µM | 44.9 µM | 61.3 µM | > 100 µM |  |  |  |  |  |  |  |  |  | 
Clc1nc(Cl)c(Cl)c(Cl)n1 | 31.1 µM | 35.6 µM |  |  | 28.9 µM | 46.8 µM | 37.3 µM | 35 µM | > 61 µM | 31.7 µM |  |  |  |  |  |  |  |  |  | 
Clc1ccc(Cc2nc3ccc(CCN4CCN(c5ccccc5)CC4)cc3[nH]2)cc1 | 18.8 µM | 38.6 µM |  |  | 24.1 µM | 37.3 µM | 27 µM | 19.1 µM | 26.6 µM | 44 µM |  |  |  |  |  |  |  |  |  | 
O=[N+]([O-])/C(C(Cl)=C(Cl)Cl)=C1\NCCO1 | > 100 µM | > 100 µM |  |  | > 100 µM | > 100 µM | > 100 µM | > 100 µM | > 100 µM | > 100 µM |  |  |  |  |  |  |  |  |  | 
CC1(C)N=C(C(N)=O)c2ncn(CCO)c2N1 | > 100 µM | > 100 µM |  |  | > 100 µM | > 100 µM | > 100 µM | > 100 µM | > 100 µM | > 100 µM |  |  |  |  |  |  |  |  |  | 
ClC(Cl)(Cl)C1=N[C@H]2[C@H](Br)[C@@H]3O[C@@H](c4ccccc4)[C@H](c4ccccc4)O[C@@H]3[C@H]2O1 | 37.3 µM | 32.6 µM |  |  | 45.6 µM | 43.8 µM | 37.5 µM | 45.4 µM | 42.4 µM | 73.7 µM |  |  |  |  |  |  |  |  |  | 
CC(=O)[C@@H]1CCC=C2CC[C@]3(C)[C@@H](CC[C@@H]4[C@@]5(C)CCCNC(C)(C)[C@@H]5CC[C@]43C)[C@H]21 | 4.29 µM | 3.22 µM |  |  | 3.6 µM | 3.39 µM | 3.45 µM | 3.32 µM | 3.49 µM | 3.33 µM |  |  | 2.19 µM | 1.81 µM | 1.74 µM | 1.87 µM | 1.93 µM | 1.77 µM | 1.86 µM | 1.88 µM
Cc1cc(CNC(=O)OCc2ccccc2)c(C)c2c1Oc1ccccc1O2 | > 100 µM | > 87.5 µM |  |  | > 100 µM | 72.3 µM | > 100 µM | 32.6 µM | > 100 µM | > 100 µM |  |  |  |  |  |  |  |  |  | 
Cc1sc2nc(-c3cc([N+](=O)[O-])c(Cl)cc3Cl)c(/C=N/N=C(N)N)n2c1C | 26 µM | 33.9 µM |  |  | 19.5 µM | 9 µM | 35.7 µM | 20.6 µM | 16.6 µM | 39.1 µM |  |  |  |  |  |  |  |  |  | 
CNc1ccc(-c2nc3cc(C)ccc3o2)cc1 | > 100 µM | > 100 µM |  |  | > 100 µM | > 100 µM | > 100 µM | 79.8 µM | > 100 µM | > 100 µM |  |  |  |  |  |  |  |  |  | 
CCCCCCCCCCCCCCCCCCNc1ccn(C2OC(COP(=O)(O)OCC3CCC(n4cnc5c(=O)[nH]cnc54)O3)C(O)C2O)c(=O)n1 (centres undefined) | > 100 µM | > 100 µM |  |  | > 100 µM | > 100 µM | > 100 µM | > 100 µM | > 100 µM | > 100 µM |  |  |  |  |  |  |  |  |  | 
O=C(NCCC(F)(F)C(F)(F)C(F)(F)C(F)(F)F)NC1OC(CO)C(O)C(O)C1O (centres undefined) | > 100 µM | > 100 µM |  |  | > 100 µM | > 100 µM | > 100 µM | > 100 µM | > 100 µM | > 100 µM |  |  |  |  |  |  |  |  |  | 
